The values below come from patent US4588715A, “Heptenoic acid derivatives” (Sandoz, Inc., priority 1984, dated 1986).

The subject of experiment [1] is Cholesterol Biosynthesis. In words: Test B. In Vitro Cell Culture Cholesterol Biosynthesis Screen (Fu5AH rat hepatoma cell line). In kind it is cell-based. The note with it: Fu5AH rat hepatoma cells, [14C]acetate, 3 hours; for inhibition at 10 µM: concentration 10 μM; for inhibition at 1 µM: concentration 1 μM. How it is done:
Test B. In Vitro Cell Culture Cholesterol Biosynthesis Screen
The cell culture is prepared as follows: Stock monolayer cultures of the Fu5AH rat hepatoma cell line (originally obtained from G. Rothblat; see Rothblat, Lipids 9, 526-535 (1974) are routinely maintained in Eagle's Minimum Essential Medium (EMEM) supplemented with 10% fetal bovine serum (FBS) in 75 cm^2. tissue culture flasks. For these studies, when the cultures reach confluence, they are removed by mild enzymatic treatment with 0.25% trypsin in Hanks' balanced salt solution (without calcium and magnesium). After centrifugation of the cell suspension and aspiration of the enzymatic solution, the cell pellet is resuspended in an appropriate volume of media for seeding into 60 mm. tissue culture dishes. The cultures are incubated at 37° C. in an atmosphere of high humidity and 5% carbon dioxide. When the cultures are confluent (approximately 5 days), they are ready for use. The culture media is aspirated from the dishes and replaced with 3 ml. of EMEM supplemented with 5 mg./ml. of delipidized serum protein (DLSP) prepared by the method of Rothblat et al., In Vitro 12, 554-557 (1976). […] Enhanced 3-hydroxy-3-methylglutaryl Coenzyme A reductase (HMG-CoA reductase) activity is measurable in the cells in response to the lack of exogenous sterol. Following approximately 24 hours incubation at 37° C. in the DLSP supplemented media, the assay is initiated by the addition of 3μCi of [^14 C]acetate and the test substances solubilized in dimethylsulfoxide (DMSO) or distilled water. Solvent controls and compactin-treated controls are always prepared. Triplicate 60 mm. tissue culture dishes are run for each group. After 3 hours incubation at 37° C., the cultures are examined microscopically using an inverted phase contrast microscope. Notations are made of any morphological changes which may have occurred in the cultures. The media is aspirated and the cell layer is gently washed twice with 0.9% sodium chloride solution (saline). The cell layer is then harvested in 3 ml. of 0.9% saline by gentle scraping with a rubber policeman and transferred to a clean glass tube with Teflon lined cap. The dishes are rinsed with 3 ml. of 0.9 % saline and rescraped, and the cells are combined with the first harvest. The tubes are centrifuged at 1500 r.p.m. for 10 minutes in an IEC PR-J centrifuge, and the supernatant is aspirated.
The cells are then extracted as follows: One ml. of 100% ethanol is added to the cell pellet followed by sonication for 10 seconds with a "LO" setting of 50 on a Bronwell Biosonik IV. One hundred μL. are taken for protein determination. One ml. of 15% potassium hydroxide (KOH) is added, and the samples are thoroughly vortexed. Saponification is accomplished by heating the ethanol-KOH treated samples at 60° C. for 60 minutes in a water bath. Following dilution of the samples with 2 ml. of distilled water, they are extracted three times with 7 ml. of petroleum ether. The petroleum ether extracts are then washed three times with 2 ml. of distilled water and finally taken to dryness under a stream of nitrogen.
The obtained samples are then analyzed by thin layer chromatography (TLC) as follows: Residues from the petroleum ether extraction are taken up in a small volume of hexane and spotted on silica gel 60 TLC plates (E. Merck). Development of the plates is carried out in a 150 parts by volume hexane: 50 parts by volume diethyl ether: 5 parts by volume glacial acetic acid solvent system using a three phase development procedure. Visualization is accomplished in an iodine vapor chamber. The plates are divided into five sections such that each section contains the molecules having the following approximate Rf values: section 1-0-0.4, section 2-0.4-0.55, section 3-0.55-0.7, section 4-0.7-0.9 and section 5-0.9-1.0. Section 2 contains the non-saponifiable sterols. The five sections of the TLC plates are scraped into scintillation vials. […]

Another experiment addresses T1, HMG-CoA reductase (Rattus norvegicus, UniProt P51639).
T1 construct: the microsomes are the source of the HMG-CoA reductase enzyme; from tissue; host or cells: liver microsomes, male Sprague-Dawley rats
T1 sequence (P51639 1-887): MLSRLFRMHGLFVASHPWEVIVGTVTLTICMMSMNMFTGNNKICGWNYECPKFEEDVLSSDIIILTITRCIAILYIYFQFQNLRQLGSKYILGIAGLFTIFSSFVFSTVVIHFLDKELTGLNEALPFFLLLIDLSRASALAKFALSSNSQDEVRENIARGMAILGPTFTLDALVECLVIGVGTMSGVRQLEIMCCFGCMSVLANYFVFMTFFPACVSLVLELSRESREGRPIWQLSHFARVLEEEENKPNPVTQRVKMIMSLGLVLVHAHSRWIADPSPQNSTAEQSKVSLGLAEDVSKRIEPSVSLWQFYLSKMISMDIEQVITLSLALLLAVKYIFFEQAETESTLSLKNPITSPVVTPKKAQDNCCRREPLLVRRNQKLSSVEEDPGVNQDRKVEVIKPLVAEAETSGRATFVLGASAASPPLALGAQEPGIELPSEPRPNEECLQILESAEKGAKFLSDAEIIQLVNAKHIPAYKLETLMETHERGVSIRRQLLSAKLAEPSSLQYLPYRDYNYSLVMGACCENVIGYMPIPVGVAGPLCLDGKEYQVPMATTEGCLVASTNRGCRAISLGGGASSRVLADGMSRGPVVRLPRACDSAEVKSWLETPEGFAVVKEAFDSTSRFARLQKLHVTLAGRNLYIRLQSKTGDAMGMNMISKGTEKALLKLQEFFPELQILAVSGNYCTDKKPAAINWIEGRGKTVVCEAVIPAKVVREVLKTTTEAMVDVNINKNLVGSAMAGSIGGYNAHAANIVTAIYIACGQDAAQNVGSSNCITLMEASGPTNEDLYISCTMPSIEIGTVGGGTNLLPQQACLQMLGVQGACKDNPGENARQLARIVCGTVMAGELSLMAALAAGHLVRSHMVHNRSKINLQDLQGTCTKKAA
In words: Test A. In Vitro Microsomal Assay of HMG-CoA Reductase Inhibition. In kind it is biochemical. The note with it: saponified products M=Na, unsaponified products tested in DMA. How it is done:
Test A. In Vitro Microsomal Assay of HMG-CoA Reductase Inhibition
200 μl. aliquots (1.08-1.50 mg./ml.) of rat liver microsomal suspensions, freshly prepared from male Sprague-Dawley rats (150-225 g. body weight), in Buffer A with 10 mmol. dithiothreitol are incubated with 10 μl. test substance dissolved in dimethylacetamide and assayed for HMG-CoA reductase activity as described by Ackerman et al., J. Lipid Res. 18,408-413 (1977). In the assay the microsomes are the source of the HMG-CoA reductase enzyme which catalyzes the reduction of HMG-CoA to mevalonate. The assay employs a chloroform extraction to separate the product, [^14 C]mevalonolactone, formed by the HMG-CoA reductase reaction from the subsubstrate, [^14 C]HMG-CoA. [^3 H]mevalonolactone is added as an internal reference. Inhibition of HMG-CoA reductase is calculated from the decrease in specific activity [^14 C/^3 H]mevalonate) of test groups compared to controls.
IC50 is the concentration of the test substance in the assay system

The subject of experiment [2] is Cholesterol Biosynthesis. In words: Test C: In Vivo Cholesterol Biosynthesis Inhibition Tests. The arrangement: species or system male Wistar Royal Hart rats. The note with it: for ED50: Rattus norvegicus. How it is done: Test C: In Vivo Cholesterol Biosynthesis Inhibition Tests: In vivo studies utilize male Wistar Royal Hart rats weighing 150±20 g. which have been kept for 7-10 days on an altered light cycle (6:30 A.M.-6:30 P.M. dark) housed two per cage and fed powdered Purina Rat Chow and water ad libitum. Three hours before the diurnal maximum of cholesterol synthesis at mid-dark, the rats are administered the test substances dissolved or as a suspension in 0.5% carboxymethylcellulose in a volume of 1 ml./100 g. body weight. Controls receive vehicle alone. One hour after receiving the test substance, the rats are injected intraperitoneally with about 25 μCi/100 g. body weight of sodium [1-^14 C]acetate 1-3 mCi/mmol. Two hours after mid-dark, blood samples are obtained under sodium hexobarbitol anesthesia and the serum separated by centrifugation.
Serum samples are saponified and neutralized, and the 3β-hydroxy sterols are precipitated with digitonin basically as described by Sperry et al., J. Biol. Chem. 187,97 (1950). The [^14 C]digitonides are then counted by liquid scintillation spectrometry. After correcting for efficiencies, the results are calculated in nCi (nanocuries) of sterol formed per 100 ml. of serum. Inhibition of sterol synthesis is calculated from the reduction in the nCi of sterols formed from test groups compared to controls.

“And” between values parts separate entries of the source, which are not always exact repeats. Equal entries are not always repeated. Where two headings read alike, the source gives them in different places.

Consider `Cc1cc(C)c(/C=C/[C@@H]2C[C@@H](O)CC(=O)O2)c([Si](C)(C)c2ccccc2)c1` (relative stereo) [Example 6a (Ia"')], for which the inhibition at 10 µM in the experiment with Cholesterol Biosynthesis [1] is 73%.

Regarding `Cc1ccc(C)c([Si](C)(C)c2ccccc2)c1/C=C/[C@@H]1C[C@@H](O)CC(=O)O1` (relative stereo) [Example 10 (Ib"'), 6-{2-[3,6-dimethyl-2-(dimethylphenylsilyl)phenyl]ethenyl}4-hydroxy-tetrahydro-2H-pyran-2-one (trans,trans)], in the experiment on Cholesterol Biosynthesis [1], the inhibition at 10 µM is 63%. In addition, the IC50 at HMG-CoA reductase (IC50, rat liver microsomes) came out at 24.4 µM.

As to `CCOC(=O)C[C@H](O)C[C@H](O)/C=C/c1c(C)cc(C)cc1[Si](C)(C)c1ccccc1` (relative stereo) [Example 5a (Ia')], at 1 µM the inhibition in the experiment with Cholesterol Biosynthesis [1] was 47%. In addition, half-maximal inhibition at HMG-CoA reductase (IC50, rat liver microsomes) (IC50) required 14.7 µM.

In the case of `Cc1cc(Cl)cc([Si](C)(c2ccccc2)c2ccccc2)c1/C=C/[C@@H]1C[C@@H](O)CC(=O)O1` (relative stereo) [Example 8a (Ia"')], in the experiment on Cholesterol Biosynthesis [1], the inhibition at 10 µM turned out to be 33%.

For `Cc1cccc([Si](C)(C)c2ccccc2)c1/C=C/[C@@H]1C[C@@H](O)CC(=O)O1` (relative stereo) [Example 6g (Ia"')], testing at 10 µM in the experiment on Cholesterol Biosynthesis [1] gave an inhibition of 65%. In addition, in the experiment on Cholesterol Biosynthesis [2] (dose 48 mg/kg, serum sterol synthesis, rats), the “% Inhibition” value was found to be 57%. At HMG-CoA reductase (IC50, rat liver microsomes), this compound gave an IC50 of 27.2 µM.

On to `CC[C@H](C)C(=O)O[C@H]1C[C@@H](C)C=C2C=C[C@H](C)[C@H](CC[C@@H]3C[C@@H](O)CC(=O)O3)[C@H]21` [Mevinolin], for which the 50% effect level in the experiment on Cholesterol Biosynthesis [2] (ED50) was put at a dose of 0.41 mg/kg.

The compound `CCOC(=O)C[C@H](O)C[C@H](O)/C=C/c1c(C)cc(OC)cc1[Si](C)(C)c1ccccc1` (relative stereo) [Example 5e (Ia')] came in with an inhibition at 10 µM in the experiment on Cholesterol Biosynthesis [1] of 28%.

At HMG-CoA reductase (IC50, rat liver microsomes), `Cc1ccc(C)c([Si](C)(C)c2ccccc2)c1/C=C/[C@@H](O)C[C@@H](O)CC(=O)O` (relative stereo) [Example 10 (Ib^s)] returned an IC50 of 9 µM.

In turn, `CC[C@H](C)C(=O)O[C@H]1CCC=C2C=C[C@H](C)[C@H](CC[C@@H]3C[C@@H](O)CC(=O)O3)[C@H]21` [compactin, reference compound] had an inhibition at 0.08 µM with Cholesterol Biosynthesis [1] (concentration 0.08 μM) of 50%. In addition, the ED50 in the experiment on Cholesterol Biosynthesis [2] (standard, serum sterol synthesis, rats, read-out: ED50) turned out to be 3.5 mg/kg. Moreover, the IC50 at HMG-CoA reductase (rat liver microsomes, read-out: IC50) was 0.8 µM.

For the compound `Cc1cc(Cl)cc([Si](C)(C)c2ccccc2)c1/C=C/[C@@H](O)C[C@@H](O)CC(=O)O` (relative stereo) [Example 6b (Ia^s)], the IC50 against HMG-CoA reductase (IC50, rat liver microsomes) was 17.1 µM and 14.2 µM.

In the case of `CCOC(=O)C[C@H](O)C[C@H](O)/C=C/c1c(C)cc(Cl)cc1[Si](C)(c1ccccc1)c1ccccc1` (relative stereo) [Example 7a (Ia')], 10 µM produced 17% inhibition in the experiment on Cholesterol Biosynthesis [1].

`Cc1cc(Cl)cc([Si](C)(C)c2ccccc2)c1/C=C/[C@@H]1C[C@@H](O)CC(=O)O1` (relative stereo) [Example 6b (Ia"')] gave an IC50 against HMG-CoA reductase (IC50, rat liver microsomes) of 16.4 µM.

On HMG-CoA reductase (IC50, rat liver microsomes), `Cc1cccc([Si](C)(C)c2ccccc2)c1/C=C/[C@@H](O)C[C@@H](O)CC(=O)O` (relative stereo) [Example 6g (Ia^s)] showed an IC50 of 4.3 µM.

Compound `C[Si](C)(c1ccccc1)c1ccccc1/C=C/[C@@H]1C[C@@H](O)CC(=O)O1` (relative stereo) [Example 4 (Ia"'), 4-Hydroxy-6{2-[2-(dimethylphenylsilyl)phenyl]ethenyl}-2H-tetrahydropyran-2-one] had an inhibition at 10 µM in the experiment on Cholesterol Biosynthesis [1] of 56%.

In turn, `CCOC(=O)C[C@H](O)C[C@H](O)/C=C/c1c(C)ccc(C)c1[Si](C)(C)c1ccccc1` (relative stereo) [Example 9 (Ib'), Ethyl 7-[3,6-dimethyl-(2-dimethylphenylsilyl)-phenyl]-3,5-dihydroxy hept-6-enoate, (erythro,trans)] yielded an inhibition at 1 µM with Cholesterol Biosynthesis [1] of 19%. At HMG-CoA reductase (IC50, rat liver microsomes), this compound displayed an IC50 of 28.1 µM.

As for `C[Si](c1ccccc1)(c1ccccc1)c1ccccc1/C=C/[C@@H]1C[C@@H](O)CC(=O)O1` (relative stereo) [Example 3 (Ia"'), 4-Hydroxy-6{2-[2-(methyldiphenylsilyl)phenyl]ethenyl}-2H-tetrahydropyran-2-one(trans,trans)], 10 µM produced 74% inhibition with Cholesterol Biosynthesis [1].

For the compound `Cc1cccc([Si](C)(c2ccccc2)c2ccccc2)c1/C=C/[C@@H](O)C[C@@H](O)CC(=O)O` (relative stereo) [Example 8b (Ia^s)], the IC50 at HMG-CoA reductase (IC50, rat liver microsomes) was determined as 52.4 µM.

Compound `Cc1cc(C)c(/C=C/[C@@H](O)C[C@@H](O)CC(=O)O)c([Si](C)(C)c2ccccc2)c1` (relative stereo) [Example 6a (Ia^s)] came in with an IC50 against HMG-CoA reductase (IC50, rat liver microsomes) of 6.9 µM.
